According to patent publication US8501803B2, “Garcinia derivative, its preparing method and medicinal use” (China Pharmaceutical University, priority 2010, dated 2013):
pIC50: −log10 of the molar value.

Tests used:
[1] = system: BGC-823 cells (human gastric carcinoma cells); assay: MTT antiproliferative test on BGC-823 cells; format: cell-based; conditions: 96 h, 4 days culture, BGC-823 human gastric carcinoma cells, read-out: BGC-823 cell IC50
Protocol: (§1) Test method: The cells of log phase are cultivated in the culture plate with 96 pores, and each pore contains 100 μL of solution (including 1000-1200 tumor cells). The next day, different concentrations of the present compound are added to the treatment groups, each compound contains 4 to 5 dosage groups, and each dosage group contains at least 3 parallel pores. The solvent with an equivalent volume of the said compound is added to the control groups. The said culture plate is then placed in a 5% CO2 incubator, cultured at 37° C., and the culture solution is discharged 4 days later. Next, 200 μL of the 0.2% MTT solution (RPMI1640 preparation) is added to each pore and incubated at 37° C. for 4 hours; the obtained supernatant is discharged; and 150 μL of DMSO is added to each pore so as to dissolve formazane particles. After slightly shaking the mixture, the optical density (OD) is measured by the ELIASA in the conditions of a resulting reference wavelength 450 nm and a detection wavelength 570 nm. The tumor cells treated with solvent are used as control groups, and the inhibition rate of the drugs against the tumor cells and IC50 are calculated according to the following equation. […] The MCF-7 cells are human breast cancer cells and the BGC-823 cells are human gastric carcinoma cells.

[2] = system: MCF-7 cells (human breast cancer cells); assay: MTT antiproliferative test on MCF-7 cells; format: cell-based; conditions: MCF7, 96 h, 4 days culture, MCF-7 human breast cancer cells, read-out: MCF-7 cell IC50
Protocol: as §1

Row | Structure (SMILES) | melting point [°C] | pIC50 [1] | pIC50 [2]
1 | CC(C)=CCC12OC(C)(C)C3CC(C=C4C(=O)c5cc(O)ccc5OC431)C2=O (stereo not drawn) | 158 to 159 |  | 
2 | CC(C)=CCC12OC(C)(C)C3CC(C=C4C(=O)c5cccc(O)c5OC431)C2=O (stereo not drawn) | 203 to 205 |  | 
3 | CC(C)=CCC12OC(C)(C)C3CC(C=C4C(=O)c5c(O)cccc5OC431)C2=O (stereo not drawn) [CPUY I-1, 3,3a,4,5-tetrahydro-3,3-dimethyl-1-(3-methyl-2-butenyl)-8-hydroxyl-1,5-dimethylene-1H,7H-furan[3,4-d]xanthene-7,13-diketone] |  | 5.44 | 5.04
4 | CC(C)=CCC12OC(C)(C)C3CC(C=C4C(=O)c5ccc(O)cc5OC431)C2=O (stereo not drawn) [CPUY I-2, 3,3a,4,5-tetrahydro-3,3-dimethyl-1-(3-methyl-2-butenyl)-10-hydroxyl-1,5-dimethylene-1H,7H-furan[3,4-d]xanthene-7,13-diketone] | 197 to 199 | 4.75 | 4.91
5 | CC(C)=CCc1c(O)ccc2c1OC13C(=CC4CC1C(C)(C)OC3(CC=C(C)C)C4=O)C2=O (stereo not drawn) [CPUY I-5, 3,3a,4,5-tetrahydro-3,3-dimethyl-1,11-bis(3-methyl-2-butenyl)-10-hydroxyl-1,5-dimethylene-1H,7H-furan[3,4-d]xanthene-7,13-diketone] | 158 to 160 | 4.82 | 5.24
6 | CC(C)=CCc1c(O)ccc2c1C(=O)C1=CC3CC4C(C)(C)OC(CC=C(C)C)(C3=O)C14O2 (stereo not drawn) [CPUY I-6, 3,3a,4,5-tetrahydro-3,3-dimethyl-1,8-bis(3-methyl-2-butenyl)-9-hydroxyl-1,5-dimethylene-1H,7H-furan[3,4-d]xanthene-7,13-diketone] | 138 to 139 | 4.66 | 4.92
7 | CC(C)=CCc1cc2c(cc1O)C(=O)C1=CC3C4CC1(O2)C(=O)C3(CC=C(C)C)OC4(C)C (stereo not drawn) [CPUY I-7, 1,3a,4,11a-tetrahydro-3,3-dimethyl-1,7-bis(3-methyl-2-butenyl)-8-hydroxyl-3H-1,4-a-dimethylene-10H-furan[3,4-b]xanthene-10,12-diketone] | 148 to 150 | 4.74 | 4.96
8 | CC(C)=CCc1ccc2c(c1O)OC13C(=CC4CC1C(C)(C)OC3(CC=C(C)C)C4=O)C2=O (stereo not drawn) [CPUY I-8, 3,3a,4,5-tetrahydro-3,3-dimethyl-1,10-bis(3-methyl-2-butenyl)-11-hydroxyl-1,5-dimeth ylene-1H,7H-furan[3,4-d]xanthene-7,13-diketone] | 157 to 158 | 4.95 | 5.04
9 | CC(C)=CCC[C@]1(C)C=Cc2c(O)c3c(c(CC=C(C)C)c2O1)O[C@]12C(=C[C@@H]4C[C@H]1C(C)(C)O[C@@]2(C/C=C(/C)C(=O)O)C4=O)C3=O [Gambogic acid, gambogic acid, reference compound] |  | 5.63 | 5.66
